Experimental data: patent US20260207585A1, “METHODS AND COMPOSITIONS FOR THE TREATMENT OF PARKINSON'S DISEASE, HUNTINGTON'S DISEASE, AMYOTROPHIC LATERAL SCLEROSIS, AND LEARNING DISORDERS” (Cedars-Sinai Medical Center, priority 2022, published 2026)
Where two headings read alike, the source gives them in different places.

Legend:
DNMT1 = DNMT1 (Homo sapiens, UniProt P26358); assay: Methyltransferase inhibition panel: DNMT1; format: biochemical
Method: (§1) The ability of ETP69 to inhibit methyltransferases was tested.

DNMT3b/3L = DNMT3b/3L (Homo sapiens, UniProt Q9UBC3); assay: Methyltransferase inhibition panel: DNMT3b/3L; format: biochemical
Method: as §1

METTL21A = METTL21A (Homo sapiens, UniProt Q8WXB1); assay: Methyltransferase inhibition panel: METTL21A; format: biochemical
Method: as §1

MLL3 Complex = MLL3 Complex (Homo sapiens, UniProt Q8NEZ4); assay: Methyltransferase inhibition panel: MLL3 Complex; format: biochemical
Method: as §1

NSD1 = NSD1 (Homo sapiens, UniProt Q96L73); assay: Methyltransferase inhibition panel: NSD1; format: biochemical
Method: as §1

NSD2 = molecular target: T1, NSD2 (Homo sapiens, UniProt O96028); assay: Methyltransferase inhibition panel: NSD2; format: biochemical
T1 sequence (O96028 1-1365): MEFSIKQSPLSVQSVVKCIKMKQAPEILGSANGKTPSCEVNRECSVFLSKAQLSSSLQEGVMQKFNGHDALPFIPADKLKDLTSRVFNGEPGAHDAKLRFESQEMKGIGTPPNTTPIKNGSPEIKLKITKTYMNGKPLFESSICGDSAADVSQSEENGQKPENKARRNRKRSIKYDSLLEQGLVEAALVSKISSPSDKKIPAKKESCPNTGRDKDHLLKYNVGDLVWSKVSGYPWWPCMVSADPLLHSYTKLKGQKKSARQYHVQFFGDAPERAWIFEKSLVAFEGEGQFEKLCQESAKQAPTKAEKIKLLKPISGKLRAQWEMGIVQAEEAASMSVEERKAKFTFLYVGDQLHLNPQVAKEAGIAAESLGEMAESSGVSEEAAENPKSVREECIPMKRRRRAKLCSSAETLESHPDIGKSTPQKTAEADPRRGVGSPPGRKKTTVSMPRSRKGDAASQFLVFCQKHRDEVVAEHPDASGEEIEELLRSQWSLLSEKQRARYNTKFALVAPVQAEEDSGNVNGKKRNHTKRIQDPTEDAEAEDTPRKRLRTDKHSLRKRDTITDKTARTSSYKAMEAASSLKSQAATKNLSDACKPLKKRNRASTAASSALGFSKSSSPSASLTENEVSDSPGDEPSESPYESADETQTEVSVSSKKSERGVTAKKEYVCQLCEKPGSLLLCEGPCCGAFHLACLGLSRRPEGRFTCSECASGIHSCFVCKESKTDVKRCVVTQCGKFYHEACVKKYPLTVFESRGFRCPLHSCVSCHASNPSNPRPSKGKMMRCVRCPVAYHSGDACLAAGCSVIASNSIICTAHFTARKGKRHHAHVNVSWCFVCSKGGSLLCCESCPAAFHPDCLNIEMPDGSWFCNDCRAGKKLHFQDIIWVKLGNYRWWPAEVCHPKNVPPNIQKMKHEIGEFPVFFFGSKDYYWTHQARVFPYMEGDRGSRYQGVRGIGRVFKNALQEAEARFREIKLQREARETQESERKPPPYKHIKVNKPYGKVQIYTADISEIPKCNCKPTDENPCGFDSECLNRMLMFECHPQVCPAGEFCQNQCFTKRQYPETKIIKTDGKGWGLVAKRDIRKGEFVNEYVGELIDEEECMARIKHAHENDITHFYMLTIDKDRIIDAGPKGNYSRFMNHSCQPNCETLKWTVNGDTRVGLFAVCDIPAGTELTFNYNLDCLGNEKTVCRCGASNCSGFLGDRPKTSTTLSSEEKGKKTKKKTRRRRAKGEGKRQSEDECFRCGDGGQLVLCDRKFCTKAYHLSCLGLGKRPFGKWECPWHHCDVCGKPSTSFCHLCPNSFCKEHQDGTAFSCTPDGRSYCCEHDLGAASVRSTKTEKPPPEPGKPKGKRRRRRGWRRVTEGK
Method: as §1

SUV39H2 = SUV39H2 (Homo sapiens, UniProt Q9H5I1); assay: Methyltransferase inhibition panel: SUV39H2; format: biochemical
Method: as §1

GFAP = GFAP staining of brain sections; format: in vivo; settings: AD+ mice; 4 and 15 days
Text: ETP69 administration reduced AD-related brain pathology (FIGS. 9A-9C). Brain sections were stained for H3K9me3, 6E10 and GFAP.

[1] = read-out: Enzyme % Activity (relative to DMSO controls) Data 1
[2] = read-out: Enzyme % Activity (relative to DMSO controls) Data 2
[3] = NT1721 20 μM, substrate Nucleosomes 0.05 mg/mL

Chain of MLL3 Complex (Q15291 whole entry): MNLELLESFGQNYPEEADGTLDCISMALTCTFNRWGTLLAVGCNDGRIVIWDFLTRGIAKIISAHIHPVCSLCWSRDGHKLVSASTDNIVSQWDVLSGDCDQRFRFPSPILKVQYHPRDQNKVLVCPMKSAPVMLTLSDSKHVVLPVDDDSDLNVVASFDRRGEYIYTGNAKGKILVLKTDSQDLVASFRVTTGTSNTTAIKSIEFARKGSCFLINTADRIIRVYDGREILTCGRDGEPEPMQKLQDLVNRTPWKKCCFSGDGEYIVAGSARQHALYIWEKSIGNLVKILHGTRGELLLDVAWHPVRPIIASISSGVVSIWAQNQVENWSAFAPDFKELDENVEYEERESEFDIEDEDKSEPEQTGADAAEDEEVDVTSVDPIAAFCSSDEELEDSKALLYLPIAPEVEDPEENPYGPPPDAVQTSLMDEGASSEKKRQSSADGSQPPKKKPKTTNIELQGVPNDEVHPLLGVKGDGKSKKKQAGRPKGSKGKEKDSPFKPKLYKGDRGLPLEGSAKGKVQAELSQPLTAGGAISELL
Chain of MLL3 Complex (Q8NEZ4 4689-4911): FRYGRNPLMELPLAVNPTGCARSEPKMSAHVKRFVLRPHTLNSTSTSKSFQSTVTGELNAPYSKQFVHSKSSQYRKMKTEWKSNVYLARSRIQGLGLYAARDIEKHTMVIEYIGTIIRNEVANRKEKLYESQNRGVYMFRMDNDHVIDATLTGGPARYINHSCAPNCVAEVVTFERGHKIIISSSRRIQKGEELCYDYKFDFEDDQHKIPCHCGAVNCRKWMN
Chain of MLL3 Complex (Q9UBL3 96-628, further chain): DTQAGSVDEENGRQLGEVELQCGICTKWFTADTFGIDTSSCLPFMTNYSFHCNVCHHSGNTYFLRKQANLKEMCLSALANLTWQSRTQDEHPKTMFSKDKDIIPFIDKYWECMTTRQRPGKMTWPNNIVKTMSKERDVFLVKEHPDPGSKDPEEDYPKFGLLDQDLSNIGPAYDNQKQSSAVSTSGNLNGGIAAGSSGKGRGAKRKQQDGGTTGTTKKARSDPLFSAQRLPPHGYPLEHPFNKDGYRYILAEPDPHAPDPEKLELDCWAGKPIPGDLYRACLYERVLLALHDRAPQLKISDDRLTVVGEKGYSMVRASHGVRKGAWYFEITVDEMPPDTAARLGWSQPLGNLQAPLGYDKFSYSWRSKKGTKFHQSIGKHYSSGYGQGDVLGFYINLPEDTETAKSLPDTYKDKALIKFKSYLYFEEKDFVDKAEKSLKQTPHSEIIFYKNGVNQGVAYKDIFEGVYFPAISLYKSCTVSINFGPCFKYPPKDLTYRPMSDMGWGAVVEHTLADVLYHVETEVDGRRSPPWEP
Chain of MLL3 Complex (Q9C005 whole entry, further chain): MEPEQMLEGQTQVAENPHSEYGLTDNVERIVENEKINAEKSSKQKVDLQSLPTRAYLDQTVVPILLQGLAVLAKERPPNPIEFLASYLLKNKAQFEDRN
Chain of SUV39H2 (Q9H5I1 whole entry): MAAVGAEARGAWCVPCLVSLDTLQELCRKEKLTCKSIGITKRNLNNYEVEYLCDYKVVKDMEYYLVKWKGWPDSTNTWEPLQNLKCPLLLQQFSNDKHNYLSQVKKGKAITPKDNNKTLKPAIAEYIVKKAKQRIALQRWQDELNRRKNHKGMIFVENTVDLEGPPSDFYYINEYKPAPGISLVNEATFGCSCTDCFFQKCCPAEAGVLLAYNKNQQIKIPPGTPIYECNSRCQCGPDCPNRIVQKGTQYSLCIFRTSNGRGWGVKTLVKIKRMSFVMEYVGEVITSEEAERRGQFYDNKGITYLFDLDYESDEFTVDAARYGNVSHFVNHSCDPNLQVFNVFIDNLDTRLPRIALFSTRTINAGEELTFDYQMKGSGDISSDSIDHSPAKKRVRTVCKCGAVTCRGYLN
Chain of NSD1 (Q96L73 whole entry): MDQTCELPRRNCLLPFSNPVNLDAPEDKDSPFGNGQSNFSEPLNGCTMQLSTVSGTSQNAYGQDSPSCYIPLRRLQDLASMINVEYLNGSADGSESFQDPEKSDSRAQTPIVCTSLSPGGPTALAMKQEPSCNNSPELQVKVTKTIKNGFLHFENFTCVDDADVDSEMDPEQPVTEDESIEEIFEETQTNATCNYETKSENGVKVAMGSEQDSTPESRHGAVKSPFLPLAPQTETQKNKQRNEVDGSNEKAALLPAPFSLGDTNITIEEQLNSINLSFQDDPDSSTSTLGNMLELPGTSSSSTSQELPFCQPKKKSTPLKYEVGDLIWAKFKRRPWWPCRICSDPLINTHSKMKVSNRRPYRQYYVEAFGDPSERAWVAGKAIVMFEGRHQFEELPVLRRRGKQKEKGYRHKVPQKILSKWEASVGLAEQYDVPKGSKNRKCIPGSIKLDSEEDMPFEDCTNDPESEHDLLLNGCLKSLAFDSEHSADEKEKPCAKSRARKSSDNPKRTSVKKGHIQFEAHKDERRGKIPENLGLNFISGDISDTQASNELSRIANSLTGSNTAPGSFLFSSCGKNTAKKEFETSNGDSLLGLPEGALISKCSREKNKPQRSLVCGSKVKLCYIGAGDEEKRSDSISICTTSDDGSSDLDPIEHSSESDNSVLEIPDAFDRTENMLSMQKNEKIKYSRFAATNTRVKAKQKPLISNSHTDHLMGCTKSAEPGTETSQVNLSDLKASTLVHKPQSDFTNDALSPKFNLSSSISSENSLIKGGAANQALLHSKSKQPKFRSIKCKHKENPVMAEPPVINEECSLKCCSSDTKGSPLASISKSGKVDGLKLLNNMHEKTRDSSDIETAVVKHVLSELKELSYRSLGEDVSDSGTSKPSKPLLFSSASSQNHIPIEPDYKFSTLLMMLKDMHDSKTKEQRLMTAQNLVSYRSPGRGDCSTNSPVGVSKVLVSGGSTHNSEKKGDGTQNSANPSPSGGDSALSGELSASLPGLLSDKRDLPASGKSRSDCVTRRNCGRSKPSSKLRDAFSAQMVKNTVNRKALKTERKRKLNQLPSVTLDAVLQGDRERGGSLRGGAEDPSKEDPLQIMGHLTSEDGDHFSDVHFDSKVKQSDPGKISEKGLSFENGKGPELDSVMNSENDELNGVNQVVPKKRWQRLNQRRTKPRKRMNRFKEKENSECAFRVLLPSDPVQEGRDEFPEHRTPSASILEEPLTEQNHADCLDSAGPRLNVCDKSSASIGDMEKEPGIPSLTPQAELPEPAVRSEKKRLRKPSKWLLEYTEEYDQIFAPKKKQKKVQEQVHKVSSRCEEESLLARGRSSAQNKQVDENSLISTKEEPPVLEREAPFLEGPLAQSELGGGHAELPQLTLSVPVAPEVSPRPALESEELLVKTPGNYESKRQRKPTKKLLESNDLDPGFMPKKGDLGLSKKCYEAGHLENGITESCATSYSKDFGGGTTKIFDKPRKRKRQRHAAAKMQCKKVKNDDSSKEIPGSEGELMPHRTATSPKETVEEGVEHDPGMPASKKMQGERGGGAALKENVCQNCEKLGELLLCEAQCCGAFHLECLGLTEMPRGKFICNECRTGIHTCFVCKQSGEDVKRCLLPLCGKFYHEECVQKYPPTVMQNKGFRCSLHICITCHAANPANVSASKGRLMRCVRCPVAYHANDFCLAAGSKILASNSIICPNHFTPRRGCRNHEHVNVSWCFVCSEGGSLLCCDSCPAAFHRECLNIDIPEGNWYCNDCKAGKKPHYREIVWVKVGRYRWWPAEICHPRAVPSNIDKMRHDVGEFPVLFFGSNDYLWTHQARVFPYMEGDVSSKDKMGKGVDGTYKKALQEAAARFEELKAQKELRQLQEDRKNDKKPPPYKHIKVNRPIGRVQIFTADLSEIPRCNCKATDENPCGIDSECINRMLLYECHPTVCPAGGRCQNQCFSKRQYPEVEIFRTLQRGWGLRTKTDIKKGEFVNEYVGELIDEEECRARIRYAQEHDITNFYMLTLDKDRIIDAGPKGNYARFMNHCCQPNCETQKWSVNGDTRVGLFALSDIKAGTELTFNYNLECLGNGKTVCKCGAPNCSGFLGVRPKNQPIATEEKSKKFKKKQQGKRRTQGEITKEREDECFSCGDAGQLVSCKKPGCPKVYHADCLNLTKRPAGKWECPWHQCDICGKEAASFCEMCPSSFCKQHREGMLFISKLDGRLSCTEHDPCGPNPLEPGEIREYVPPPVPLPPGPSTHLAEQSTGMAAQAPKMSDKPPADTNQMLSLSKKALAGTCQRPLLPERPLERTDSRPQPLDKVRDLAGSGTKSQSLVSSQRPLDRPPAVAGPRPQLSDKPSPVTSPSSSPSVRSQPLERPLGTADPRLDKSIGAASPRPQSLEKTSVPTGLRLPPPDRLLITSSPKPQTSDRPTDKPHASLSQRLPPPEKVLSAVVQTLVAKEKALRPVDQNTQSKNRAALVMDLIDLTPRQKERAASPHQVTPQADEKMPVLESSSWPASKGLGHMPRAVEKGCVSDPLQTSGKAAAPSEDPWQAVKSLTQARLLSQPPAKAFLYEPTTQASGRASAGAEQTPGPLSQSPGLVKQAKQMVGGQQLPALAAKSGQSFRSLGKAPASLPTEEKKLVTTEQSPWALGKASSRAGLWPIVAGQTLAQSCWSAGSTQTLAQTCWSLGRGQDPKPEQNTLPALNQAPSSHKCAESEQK
Chain of METTL21A (Q8WXB1 whole entry): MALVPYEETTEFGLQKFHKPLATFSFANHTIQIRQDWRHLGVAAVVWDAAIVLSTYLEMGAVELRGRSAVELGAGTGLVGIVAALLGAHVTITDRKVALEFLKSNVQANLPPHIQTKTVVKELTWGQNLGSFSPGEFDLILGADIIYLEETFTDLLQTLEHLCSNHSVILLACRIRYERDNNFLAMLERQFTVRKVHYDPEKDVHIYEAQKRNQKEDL

CN1C(=O)[C@@]23C[C@](C)(C#N)[C@H](c4ccc5c(c4)OCO5)N2C(=O)[C@]1(C)SS3 (racemic) [ETP69, Rac-(3S,6S,7S,8aS)-6-(benzo[d][1,3]dioxol-5-yl)-2,3,7-trimethyl-1,4-dioxohexahydro-6H-3,8a-epidithiopyrrolo[1,2-a]pyrazine-7-carbonitrile]
remaining activity at 20 µM (DNMT1; [1]): 105% | remaining activity at 20 µM (DNMT1; [2]): 108% | remaining activity at 20 µM (DNMT3b/3L; [1]): 113% | remaining activity at 20 µM (DNMT3b/3L; [2]): 111% | remaining activity at 20 µM (METTL21A; [1]): 78.6% | remaining activity at 20 µM (METTL21A; [2]): 78.5% | remaining activity at 20 µM (MLL3 Complex; [1]): 36.6% | remaining activity at 20 µM (MLL3 Complex; [2]): 32.6% | inhibition relative to DMSO controls (MLL3 Complex; summary of Table 1): at least 7500 | Enzyme % Activity (relative to DMSO controls) Data 1 (NSD1; [3]): 34.29% | Enzyme % Activity (relative to DMSO controls) Data 2 (NSD1; [3]): 36.14% | inhibition relative to DMSO controls (NSD1; summary of Table 1): at least 7500 | remaining activity at 20 µM (NSD2; [1]): 20% | remaining activity at 20 µM (NSD2; [2]): 19.9% | inhibition relative to DMSO controls (NSD2; summary of Table 1): at least 7500 | remaining activity at 20 µM (SUV39H2; [1]): 4.4% | remaining activity at 20 µM (SUV39H2; [2]): 4.4% | inhibition relative to DMSO controls (SUV39H2; summary of Table 1): at least 7500 | GFAP (GFAP): significant decrease
